# Measured values: patent publication US7312360B2, “Substituted hydroxyethylamines” (Elan Pharmaceuticals, Inc., priority 2001, dated 2007)
row,melting point [°C],Compound
1,102 to 105,"CCCCCCOc1cccc(C[C@H](NC(C)=O)[C@H](O)CNCc2cccc(CC)c2)c1 [Example 93B, N-{(1S,2R)-3-[(3-ethylbenzyl)amino]-1-[3-(hexyloxy)benzyl]-2-hydroxypropyl}acetamide]"
2,85 to 90,"CCCCCCOc1cccc(C[C@H](NC(=O)c2coc(NS(C)(=O)=O)n2)[C@H](O)CNCc2cccc(CC)c2)c1 [Example 45, N-{(1S,2R)-3-[(3-ethylbenzyl)amino]-1-[3-(hexyloxy)benzyl]-2-hydroxypropyl}-2-[(methylsulfonyl)amino]-1,3-oxazole-4-carboxamide]"
3,117 to 120,"CCCCCCOc1cccc(C[C@H](NC(=O)c2cccc(-c3ncco3)c2)[C@H](O)CNCc2cccc(CC)c2)c1 [Example 93A, N-{(1S,2R)-3-[(3-ethylbenzyl)amino]-1-[3-(hexyloxy)benzyl]-2-hydroxypropyl}-3-(1,3-oxazol-2-yl)benzamide]"
4,197 to 199,CCCCOc1cccc(C[C@H](N)[C@H](O)CNCc2cccc(CC)c2)c1.Cl.Cl

row,Compound,melting point [°C]
1,"CCCCOc1cccc(C[C@H](NC(C)=O)[C@H](O)CNCc2cccc(CC)c2)c1 [Example 50b, N-{(1S,2R)-1-(3-butoxybenzyl)-3-[(3-ethylbenzyl)amino]-2-hydroxypropyl}acetamide]",112 to 114
2,"CCCCOc1cccc(C[C@H](NC(=O)c2coc(NS(C)(=O)=O)n2)[C@H](O)CNCc2cccc(CC)c2)c1 [Example 50a, N-{(1S,2R)-1-(3-butoxybenzyl)-3-[(3-ethylbenzyl)amino]-2-hydroxypropyl}-2-[(methylsulfonyl)amino]-1,3-oxazole-4-carboxamide]",78 to 80
